Article PMC9788418, “Design, Synthesis and Biological Evaluation of Syn and Anti-like Double Warhead Quinolinones Bearing Dihydroxy Naphthalene Moiety as Epidermal Growth Factor Receptor Inhibitors with Potential Apoptotic Antiproliferative Action” (Molecules, 2022)
Values joined by “and” are separate entries in the source; they are usually repeats but may differ in a detail not shown here. Equal entries are not always repeated.

What was measured:
[1] = test system: A-549 (epithelial cancer cell line); test: Antiproliferative assay; type: cell-based, human; details: Homo sapiens, A549; read-out: Antiproliferative Activity IC50 ± SEM, A-549
Experimental: (§1) 4.2.1.2. Assay for antiproliferative effect
(§2) To explore the antiproliferative potential of compounds MTT assay was performed according to previously reported procedure using different cell lines to explore the antiproliferative potential of compounds propidium iodide fluorescence assay was performed using different cell lines. To calculate the total nuclear DNA, a fluorescent dye (propidium iodide, PI) is used which can attach to the DNA, thus offering a quick and precise technique. PI cannot pass through the cell membrane and its signal intensity can be considered as directly proportional to quantity of cellular DNA. Cells whose cell membranes are damaged or have changed permeability are counted as dead ones. The assay was performed by seeding the cells of different cell lines at a density of 3000-7500 cells/well (in 200µl […]
(§3) atmospheric conditions. The medium was removed; the compounds were added to the plates at 10 µM concentrations (in 0.1% DMSO) in triplicates, followed by incubation for 48 h. DMSO (0.1%) was used as control. After incubation, medium was removed followed by the addition of PI (25 µl, 50µg/mL in water/medium) to each well of the plates. At -80 °C, the plates were allowed to freeze for 24 h, followed by thawing at 25 °C. A fluorometer (Polar-Star BMG Tech) was used to record the readings at excitation and emission wavelengths of 530 and 620 nm for each well. The percentage cytotoxicity of compounds was calculated using the following formula:
(§4) Where ATC= Absorbance of treated cells and AC= Absorbance of control. […]
(§5) positive control in the assay.

[2] = test system: HT-29 (colon cancer cell line); test: Antiproliferative assay; type: cell-based, human; details: Homo sapiens, read-out: Antiproliferative Activity IC50 ± SEM, HT-29
Experimental: as §1, §2, §3, §4, §5

[3] = test system: MCF-7 (breast cancer cell line); test: Antiproliferative assay; type: cell-based, human; details: Homo sapiens, MCF7; read-out: Antiproliferative Activity IC50 ± SEM, MCF-7
Experimental: as §1, §2, §3, §4, §5

[4] = Cell viability assay (MTT) on normal cell line; type: cell-based, human; details: human, MCF-10A mammary gland epithelial cells, four days
Experimental: A cell viability test was performed using MCF-10A (human mammary gland epithelial) cell line to investigate the effect of 4a–e and 7a–e on normal cell lines. In this investigation, a concentration of 50 µM of the studied compound is employed for four days, after which cell viability is assessed.
4.2. Biological evaluation
4.2.1. Cytotoxic activity using MTT Assay and evaluation of IC50
MTT assay was carried out to study the effect of compounds on mammary epithelial cells (MCF-10A). The medium in which cells were propagated contained Dulbecco's modified Eagle's medium (DMEM)/ Ham's F-12 medium (1:1) supplemented with epidermal growth factor (20 ng/mL), hydrocortisone (500 ng/mL), insulin (10 μg/mL), 2 mM glutamine and 10% foetal calf serum. After every 2-3 days, the cells were passaged using trypsin ethylenediamine tetra acetic acid (EDTA). The cells were seeded at a density of 10^4 cells mL-1 in flat-bottomed culture plates containing 96 wells each. After 24 h, medium was removed from the plates and the compounds in (in 0.1% DMSO) were added (in 200 μL medium to yield a final concentration of 0.1% v/v) to the wells of plates. A single compound was designated with four wells followed by incubation of plates for 96h at 37°C. After incubation, medium was removed completely from the plates followed by addition of MTT (0.4 mg/mL in medium) to each well and subsequent incubation of plates for 3h. MTT (along with the medium) was removed and DMSO (150μL) was added to each well of the culture plates, followed by vortexing and subsequent measurement of absorbance (at 540 nm) using microplate reader. […]

[5] = test system: caspase-9; test: Caspase-9 level assay; type: cell-based, human; details: for Caspase-9 Fold Change: vs control cells
Experimental: The impact of compounds 4a and 4b on caspase-8 and caspase-9 was also assessed to clarify how compounds 4a and 4b induce apoptosis by activating the intrinsic or extrinsic route.

[6] = target: EGFR (Homo sapiens, UniProt P00533); test: EGFR inhibitory assay (EGFR-TK, DELFIA/time-resolved fluorometry)
EGFR, sequence (P00533 669-1210): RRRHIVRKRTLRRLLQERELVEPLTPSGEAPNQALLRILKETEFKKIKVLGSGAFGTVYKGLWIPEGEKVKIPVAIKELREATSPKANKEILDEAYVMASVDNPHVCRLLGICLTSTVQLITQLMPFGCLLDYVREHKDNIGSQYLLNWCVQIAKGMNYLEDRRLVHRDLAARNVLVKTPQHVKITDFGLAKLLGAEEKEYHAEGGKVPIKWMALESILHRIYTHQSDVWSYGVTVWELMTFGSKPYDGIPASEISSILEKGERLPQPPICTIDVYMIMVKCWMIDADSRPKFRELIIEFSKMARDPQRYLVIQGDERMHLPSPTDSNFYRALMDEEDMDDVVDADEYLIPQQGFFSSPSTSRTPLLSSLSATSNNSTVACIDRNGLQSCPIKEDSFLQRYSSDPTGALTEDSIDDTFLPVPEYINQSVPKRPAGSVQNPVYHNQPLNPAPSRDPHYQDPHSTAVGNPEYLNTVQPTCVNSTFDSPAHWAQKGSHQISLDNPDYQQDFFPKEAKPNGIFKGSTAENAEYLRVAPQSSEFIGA
Experimental: EGFR-TK assay was performed to evaluate the inhibitory potency of novel compounds against
EGFR. Baculoviral expression vectors including pBlueBacHis2B and pFASTBacHTc were used
5ʹ upstream to the EGFR sequence comprised a sequence that encoded (His)6. Sf-9 cells were infected for 72h for protein expression. The pellets of Sf-9 cells were solubilized in a buffer containing sodium vanadate (100 µM), aprotinin (10 µg/mL), triton (1%), HEPES buffer (50mM), ammonium molybdate (10 µM), benzamidine HCl (16 µg/mL), NaCl (10 mM), leupeptin (10 µg/mL) and pepstatin (10 µg/mL) at 0°C for 20 min at pH 7.4, followed by centrifugation for 20 min.
To eliminate the non-specifically bound material, a Ni-NTA super flow packed column was used to pass through and wash the crude extract supernatant first with 10 mM and then with 100 mM imidazole. Histidine-linked proteins were first eluted with 250 and then with 500 mM imidazole after (1 picture or pasted object on this page, not shown here)
dialysis against NaCl (50 mM), HEPES (20 mM), glycerol (10%) and 1 µg/mL each of aprotinin, leupeptin and pepstatin for 120 min. The purification was performed either at 4 °C or on ice. To
record autophosphorylation level, EGFR kinase assay was carried out based on DELFIA/Time-
Resolved Fluorometry. The compounds were first dissolved in DMSO absolute, after dilution to
Each compound (10 µL) was incubated
with recombinant enzyme (10 µL, 5 ng for EGFR, 1:80 dilution in 100 mM HEPES) for 10 min at
25 °C, after the addition of 5X buffer (10 µL, containing 2 mM MnCl2, 100 µM Na3VO4, 20 mM HEPES and 1 mM DTT) and ATP-MgCl2 (20 µL, containing 0.1 mM ATP and 50 mM MgCl2) and
incubation for 1h. The negative and positive controls were included in each plate by the incubation
of enzyme either with or without ATP-MgCl2. The liquid was removed after incubation and the plates
were washed thrice using wash buffer. Europium-tagged antiphosphotyrosine antibody (75 µL, 400
ng) was added to each well followed by incubation of 1h and then washing of the plates using buffer.
The enhancement solution was added to each well and the signal was recorded at excitation and
The autophosphorylation percentage inhibition by compounds was calculated using the following equation:

[7] = test system: Bax; test: Bax activation assay; type: cell-based, human; details: for Bax Conc: A-549; for Bax Fold Change: A-549, vs control untreated cells
Experimental: 8, and lysed with Cell Extraction Buffer. This lysate was diluted in Standard Diluent Buffer over the range of the assay and measured for human active caspase-8 content. (cells are Plated in a density of 1.2 – 1.8 × 10,000 cells/well in a volume of 100µl complete growth medium + 100 ul of the tested compound per well in a 96-well plate for 24 hours before the enzyme assay for […].). […]
4.2.4. Bax activation assay
Bring all reagents, except the human Bax-α Standard, to room temperature for at least 30 minutes prior to opening. The human Bax-α Standard solution should not be left at room temperature for more than 10 minutes. All standards, controls and samples should be run in duplicate. Refer to the Assay Layout Sheet to determine the number of wells to be used and put any remaining wells with the desiccant back into the pouch and seal the ziploc. Store unused wells at 4 °C. Pipet 100 μL of Assay Buffer into the S0 (0 pg/mL standard) wells. Pipet 100 μL of Standards #1 through #6 into the appropriate wells. Pipet 100 μL of the Samples into the appropriate wells. Tap the plate gently to mix the contents. Seal the plate and incubate at room temperature on a plate shaker for 1 hour at ~500 rpm. Empty the contents of the wells and wash by adding 400 μL of wash solution to every well.
Repeat the wash 4 more times for a total of 5 washes. After the final wash, empty or aspirate the wells and firmly tap the plate on a lint free paper towel to remove any remaining wash buffer. Pipet 100 μL of yellow Antibody into each well, except the Blank. Seal the plate and incubate at room temperature on a plate shaker for 1 hour at ~500 […]
wells and firmly tap the plate on a lint free paper towel to remove any remaining wash buffer. Add […]
100 μL of blue Conjugate to each well, except the Blank. Seal the plate and incubate at room temperature on a plate shaker for 30 minutes at ~500 rpm. Empty the contents of the wells and wash by adding 400 μL of wash solution to every well. Repeat the wash 4 more times for a total of 5 washes. After the final wash, empty or aspirate the wells and firmly tap the plate on a lint free paper towel to remove any remaining wash buffer. Pipet 100 μL of Substrate Solution into each well.
Incubate for 30 minutes at room temperature on a plate shaker at ~500 rpm. Pipet 100 μL Stop Solution to each well. Blank the plate reader against the Blank wells, read the optical density at 450 nm. Calculate the average net Optical Density (OD) bound for each standard and sample by subtracting the average Blank OD from the average OD for each standard and sample. Using linear graph paper, plot the Average Net OD for each standard versus Bax concentration in each standard.
Approximate a straight line through the points. The concentration of Bax in the unknowns can be determined by interpolation. […]

IC50 [1] [nM]	IC50 [2] [nM]	IC50 [3] [nM]	IC50 [6] [nM]	fold less effective than erlotinib (EGFR IC50) ([6]; relative to erlotinib)	Compound	viability at 96 h, 50 µM [4] [%]	Caspase-9 Conc [5] [ng/mL]	Caspase-9 Fold Change [5]	Bax Conc [7]	Bax Fold Change [7]
31 ± 3	36 ± 3	33 ± 3	64 ± 6	–	O=c1cc(-n2cc(COc3cccc4cccc(OCc5cn(-c6cc(=O)[nH]c7ccccc67)nn5)c34)nn2)c2ccccc2[nH]1 [Compound 4a, 4,4′-(((naphthalene-1,8-diylbis(oxy))bis(methylene))bis(1H-1,2,3-triazole-4,1-diyl))-bis-(quinolin-2(1H)-one)]	91	17.80	19 and 18.75	298 pg/mL and 298.60 pg/mL	36
41 ± 4	48 ± 4	43 ± 4	93 ± 9	roughly 1.3 fold	Cc1ccc2[nH]c(=O)cc(-n3cc(COc4cccc5cccc(OCc6cn(-c7cc(=O)[nH]c8ccc(C)cc78)nn6)c45)nn3)c2c1 [Compound 4b, 4,4′-(((naphthalene-1,8-diylbis(oxy))bis(methylene))bis(1H-1,2,3-triazole-4,1-diyl))-bis(6-methylquinolin-2(1H)-one)]	89	16.60	18 and 17.50	284 pg/mL and 284.50 pg/mL	34
